Positions of bridges follow the written chain, without caps; N, C: chain ends. Non-standard residues stand in square brackets, D forms with d. Residues, ends and D or L forms follow the SMILES beside them. *: point of attachment. Phe(4-COOH) = N[C@@H](Cc1ccc(C(=O)O)cc1)C(=O)O; Trp(7-aza) = N[C@@H](Cc1c[nH]c2ncccc12)C(=O)O; Gly(N(CH2)3COOH) = O=C(O)CCCNCC(=O)O; NMeF = CN[C@@H](Cc1ccccc1)C(=O)O; 3Pal = N[C@@H](Cc1cccnc1)C(=O)O; 4Pal = N[C@@H](Cc1ccncc1)C(=O)O; Carboxymethyl = O=C(O)C*; NMeA = CN[C@@H](C)C(=O)O; Sar = CNCC(=O)O
Key:
Type in all cases: cell-based
GDF-11 = target: T1, GDF-11 (Homo sapiens, UniProt O95390); test: Reporter gene assay for myostatin signaling in HepG2 cell line, Evaluation Procedure (1), GDF-11 inhibition; settings: Method A: GDF-11 10 ng/mL; read-out: IC50 (Luciferase) GDF-11 HepG2
T1 construct: purchased R&D systems 1958-GD-G8/CF
T1 sequence (O95390 299-407): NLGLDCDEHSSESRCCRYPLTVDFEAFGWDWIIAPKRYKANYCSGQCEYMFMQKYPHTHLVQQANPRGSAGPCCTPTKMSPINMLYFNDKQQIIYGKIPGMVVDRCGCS
Experimental: (§1) In this Example, the in vitro myostatin inhibitory effects of the peptides synthesized in Examples 1 and 2 were evaluated using a reporter gene assay for myostatin signaling in HepG2 cell line.
(§2) HepG2 cell line (HB-8065, ATCC) cultured in EMEM (055-08975, WAKO Industries) containing 10% FBS (10270106, Gibco) and 50 µg/mL gentamicin (11980-14, Nacalai Tesque) was seeded in 96-well plates (167008, Thermo) at 2.0 × 10^4 cells/well and incubated in a CO2 incubator (37°C, 5% CO2) for 24 hours. The pGL3(CAGA)12-luc plasmid, namely a pGL3 vector (E1751, Promega) having a luciferase gene inserted downstream of a promoter sequence with 12 CAGA repeats attached, was added to the wells along with a transfection reagent (X-treamGENE9 DNA Transfection Reagent, 6365809001, Roche) at a concentration of 0.04 µg/well. The cell line was cultured in a CO2 incubator (37°C, 5% CO2) for 24 hours for transfection. The medium was discarded and replaced with EMEM containing 50 µL/well of 0.1% bovine serum albumin (A7030, Sigma) and 50 µg/mL gentamicin, and incubated in a CO2 incubator (37°C, 5% CO2) for 2 hours.
(§3) Myostatin (788-G8/C, R&D systems) or GDF-11 (1958-GD-G8/CF, R&D systems) was added so that the final concentrations were those listed in Table 5.
(§4) A 4-fold dilution series of various peptides synthesized in Examples 1 and 2 was added to achieve 0.006-100 nmol/L (myostatin inhibition) and 0.12-2000 nmol/L (GDF-11 inhibition). At this time, blank wells, in which neither myostatin, GDF-11, nor each peptide was added, were also prepared and incubated in a CO2 incubator (37°C, 5% CO2) for 20 to 24 hours.
(§5) The medium containing the cells was removed, and a mixture containing PBS (14190144, Thermo) and a chromogenic substrate One-Glo Luciferase Assay System (E6120, Promega) at a ratio of 1:1 was added to each well at 100 µL/well. This was stirred with a plate shaker for 5 min and transferred to a 384-well plate (3570, Corning) at a volume of 20 µL/well.
(§6) The plate was centrifuged at 1,000 × g for 1 min and the luminescence signal (700 nm luminescence) was measured using a plate reader (Envision 2104, PerkinElmer). Based on the measured values, IC50 values of the peptides were calculated using software (Prism 9, GraphPad). […]
(§7) In this Example, the in vitro myostatin inhibitory effects of the peptides synthesized in Examples 10 and 11 were evaluated according to the Evaluation Procedure (1) in Example 3.

Myostatin [1] = target: T2, Myostatin (Homo sapiens, UniProt O14793); test: Reporter gene assay for myostatin signaling in HepG2 cell line, Evaluation Procedure (1), myostatin inhibition; settings: Method A: Myostatin 10 ng/mL; read-out: IC50 (Luciferase) Myostatin HepG2
T2 construct: active myostatin (also called mature myostatin) is a homodimer consisting of two C-terminal growth factor domains; purchased R&D systems 788-G8/CF
T2 sequence (O14793 267-375): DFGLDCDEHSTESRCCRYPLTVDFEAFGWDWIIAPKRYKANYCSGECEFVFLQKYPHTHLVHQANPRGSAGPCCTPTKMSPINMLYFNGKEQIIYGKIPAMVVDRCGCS
Experimental: as §1, §2, §3, §4, §5, §6, §7

Myostatin [2] = test: as above; settings: Method A; GDF-11 IC50 versus Myostatin IC50
Experimental: as §1, §2, §3, §4, §5, §6, §7

Structure (SMILES)	IC50 (GDF-11) [nM]	IC50 (Myostatin [1]) [nM]	Selectivity (Myostatin [2])
CC[C@H](C)[C@@H]1NC(=O)[C@H](Cc2ccccc2)N(C)C(=O)[C@H](Cc2ccc(O)cc2)NC(=O)[C@H](Cc2c[nH]c3ncccc23)NC(=O)[C@H](C)NC(=O)CN(CCCC(=O)O)C(=O)CSC[C@H](C(=O)O)NC(=O)[C@H](Cc2ccccc2)N(C)C(=O)[C@H](C)N(C)C(=O)[C@H](CC(C)C)NC(=O)[C@H](Cc2ccccc2)N(C)C(=O)[C@H](CCCNC(=N)N)NC(=O)[C@H](Cc2ccc(C(=O)O)cc2)NC(=O)[C@H](Cc2ccccc2)NC(=O)CN(C)C1=O [Myostatin_99_Variant_20-OH] ({CH2CO}-[Gly(N(CH2)3COOH)]A[Trp(7-aza)]Y[NMeF]I[Sar]F[Phe(4-COOH)]R[NMeF]L[NMeA][NMeF][dC]-OH; thioether N-15)	2010	44.8	45
CC[C@H](C)[C@@H]1NC(=O)[C@H](Cc2ccccc2)N(C)C(=O)[C@H](Cc2ccc(O)cc2)NC(=O)[C@H](Cc2c[nH]c3ncccc23)NC(=O)[C@H](C)NC(=O)CN(CCCC(=O)O)C(=O)CSC[C@H](C(=O)O)NC(=O)[C@H](Cc2ccccc2)N(C)C(=O)[C@H](C)N(C)C(=O)[C@H](CC(C)C)NC(=O)[C@H](Cc2ccccc2)N(C)C(=O)[C@H](CCCNC(=N)N)NC(=O)[C@H](Cc2ccc(C(=O)O)cc2)NC(=O)[C@H](Cc2ccncc2)NC(=O)CN(C)C1=O [Myostatin_99_Variant_21-OH] ({CH2CO}-[Gly(N(CH2)3COOH)]A[Trp(7-aza)]Y[NMeF]I[Sar][4Pal][Phe(4-COOH)]R[NMeF]L[NMeA][NMeF][dC]-OH; thioether N-15)	4320	106	41
CC[C@H](C)[C@@H]1NC(=O)[C@H](Cc2ccccc2)N(C)C(=O)[C@H](Cc2ccc(O)cc2)NC(=O)[C@H](Cc2c[nH]c3ncccc23)NC(=O)[C@H](C)NC(=O)CN(CCCC(=O)O)C(=O)CSC[C@H](C(=O)NCC(=O)N[C@H](CCC(=O)O)C(=O)NCC(=O)N[C@H](CCCCN)C(=O)O)NC(=O)[C@H](Cc2ccccc2)N(C)C(=O)[C@H](C)N(C)C(=O)[C@H](CC(C)C)NC(=O)[C@H](Cc2ccccc2)N(C)C(=O)[C@H](CCCNC(=N)N)NC(=O)[C@H](Cc2ccc(C(=O)O)cc2)NC(=O)[C@H](Cc2ccncc2)NC(=O)CN(C)C1=O [Myostatin_99_v31] ({CH2CO}-[Gly(N(CH2)3COOH)]A[Trp(7-aza)]Y[NMeF]I[Sar][4Pal][Phe(4-COOH)]R[NMeF]L[NMeA][NMeF][dC]G[dE]G[dK]-OH; thioether N-15)	1340	54.7	25
CC[C@H](C)[C@@H]1NC(=O)[C@H](Cc2ccccc2)N(C)C(=O)[C@H](Cc2ccc(O)cc2)NC(=O)[C@H](Cc2c[nH]c3ncccc23)NC(=O)[C@H](C)NC(=O)CN(CCCC(=O)O)C(=O)CSC[C@H](C(=O)O)NC(=O)[C@H](Cc2ccccc2)N(C)C(=O)[C@H](C)N(C)C(=O)[C@H](CC(C)C)NC(=O)[C@H](Cc2ccccc2)N(C)C(=O)[C@H](CCCNC(=N)N)NC(=O)[C@H](Cc2cccnc2)NC(=O)[C@H](Cc2ccccc2)NC(=O)CN(C)C1=O [Myostatin_99_v41] ({CH2CO}-[Gly(N(CH2)3COOH)]A[Trp(7-aza)]Y[NMeF]I[Sar]F[3Pal]R[NMeF]L[NMeA][NMeF][dC]-OH; thioether N-15)	1630	63.7	26
CC[C@H](C)[C@@H]1NC(=O)[C@H](Cc2ccccc2)N(C)C(=O)[C@H](Cc2ccc(O)cc2)NC(=O)[C@H](Cc2c[nH]c3ncccc23)NC(=O)[C@H](C)NC(=O)CN(CCCC(=O)O)C(=O)CSC[C@H](C(=O)O)NC(=O)[C@H](Cc2ccccc2)N(C)C(=O)[C@H](C)N(C)C(=O)[C@H](CC(C)C)NC(=O)[C@H](Cc2ccccc2)N(C)C(=O)[C@H](CCCNC(=N)N)NC(=O)[C@H](Cc2ccc(OCC(=O)O)cc2)NC(=O)[C@H](Cc2ccccc2)NC(=O)CN(C)C1=O [Myostatin_99_v43] ({CH2CO}-[Gly(N(CH2)3COOH)]A[Trp(7-aza)]Y[NMeF]I[Sar]FY(Carboxymethyl)R[NMeF]L[NMeA][NMeF][dC]-OH; thioether N-15)	1990	33.2	60
